Measured values from PMC2783503 (Journal of medicinal chemistry, 2009).
Where two headings read alike, the source gives them in different places. Non-standard residues stand in square brackets, D forms with d. Residues, ends and D or L forms follow the SMILES beside them. Phe(2,6-Me2,4-CONH2) = Cc1cc(C(N)=O)cc(C)c1C[C@H](N)C(=O)O; Dmt = Cc1cc(O)cc(C)c1C[C@H](N)C(=O)O; Tic = O=C(O)[C@@H]1Cc2ccccc2CN1

Tests used:
δ opioid receptor [1] = biological target: T1, δ opioid receptor (Mus musculus, UniProt P32300); test: MVD
μ opioid receptor [2] = test: GPI; design: species or system guinea pig
δ opioid receptor [3] = biological target: T1, δ opioid receptor; settings: δ antagonist activity; ref Schiller et al.[10]; cited from earlier work
μ opioid receptor [4] = biological target: μ opioid receptor (UniProt P33535); settings: read-out: Ki^μ; ref Schiller et al.[10]; cited from earlier work
μ opioid receptor [5] = settings: result in words; ref Schiller et al.[10]; cited from earlier work
κ opioid receptor = κ opioid receptor (UniProt P41144); settings: read-out: Ki^κ; ref Schiller et al.[10]; cited from earlier work
Sequence of κ opioid receptor (P41144 whole entry): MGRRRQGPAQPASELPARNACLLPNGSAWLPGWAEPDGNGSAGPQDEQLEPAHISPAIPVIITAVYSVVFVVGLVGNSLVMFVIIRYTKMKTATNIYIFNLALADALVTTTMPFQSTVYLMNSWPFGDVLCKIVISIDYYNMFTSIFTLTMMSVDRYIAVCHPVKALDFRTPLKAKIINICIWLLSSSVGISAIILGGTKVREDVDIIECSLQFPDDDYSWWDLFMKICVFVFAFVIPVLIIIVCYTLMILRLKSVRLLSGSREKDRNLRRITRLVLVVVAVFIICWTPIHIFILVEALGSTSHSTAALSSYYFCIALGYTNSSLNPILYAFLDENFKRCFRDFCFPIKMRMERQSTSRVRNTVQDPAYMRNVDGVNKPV

T1 sequence (P32300 whole entry): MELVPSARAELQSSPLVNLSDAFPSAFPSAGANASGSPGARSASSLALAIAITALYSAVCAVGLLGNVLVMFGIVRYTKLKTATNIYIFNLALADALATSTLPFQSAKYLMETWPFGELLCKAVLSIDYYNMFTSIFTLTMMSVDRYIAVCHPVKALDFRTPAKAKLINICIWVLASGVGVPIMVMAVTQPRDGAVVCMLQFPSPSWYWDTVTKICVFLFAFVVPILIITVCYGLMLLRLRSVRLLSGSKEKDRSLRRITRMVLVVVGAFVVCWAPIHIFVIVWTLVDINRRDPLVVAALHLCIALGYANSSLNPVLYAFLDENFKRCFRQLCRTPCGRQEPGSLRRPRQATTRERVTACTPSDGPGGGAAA
Sequence of μ opioid receptor (UniProt P33535) (P33535 whole entry): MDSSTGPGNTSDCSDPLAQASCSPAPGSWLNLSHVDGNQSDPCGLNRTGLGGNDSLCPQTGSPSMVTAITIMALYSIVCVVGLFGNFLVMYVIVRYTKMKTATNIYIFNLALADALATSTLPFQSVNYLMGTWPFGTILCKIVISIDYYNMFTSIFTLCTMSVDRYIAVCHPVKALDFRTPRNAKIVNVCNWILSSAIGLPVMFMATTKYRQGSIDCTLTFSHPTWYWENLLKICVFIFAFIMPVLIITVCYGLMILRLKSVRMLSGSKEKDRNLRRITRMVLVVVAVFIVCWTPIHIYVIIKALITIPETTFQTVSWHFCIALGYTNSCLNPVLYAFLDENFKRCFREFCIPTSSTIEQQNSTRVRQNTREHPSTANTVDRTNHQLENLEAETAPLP

## N[C@@H](Cc1ccc(O)cc1)C(=O)N1Cc2ccccc2C[C@H]1C(=O)O [compound 9, H-Tyr-Tic-OH] (H-Tyr-[Tic]-OH)
δ opioid receptor [1]
  Kb: 263 ± 40 nM
μ opioid receptor [2]; result in words
  GPI activity: inactive

## Cc1cc(C(N)=O)cc(C)c1C[C@H](N)C(=O)N1Cc2ccccc2C[C@H]1C(=O)N[C@@H](Cc1ccccc1)C(=O)N[C@@H](Cc1ccccc1)C(=O)O [compound 12, H-Cdp-Tic-Phe-Phe-OH] (H-[Phe(2,6-Me2,4-CONH2)][Tic]FF-OH)
δ opioid receptor [1]
  Kb: 0.627 ± 0.058 nM
μ opioid receptor [2]; μ antagonist activity
  GPI Ke^μ: 3.07 ± 0.26 µM

## H-Y[Tic]FF-OH [compound 8]
δ opioid receptor [3]
  MVD Ke^δ: 4.80 ± 0.20 nM

## H-[Dmt]-[Tic]-OH [compound 11]
μ opioid receptor [4]
  Ki: 1360 ± 160 nM
μ opioid receptor [5]
  GPI activity: inactive
κ opioid receptor
  Ki: > 1000 nM

## H-[Dmt][Tic]FF-OH [compound 10]
δ opioid receptor [3]
  MVD Ke^δ: 0.196 ± 0.035 nM
